# Reference: patent US20260063641A1, “COMPOSITIONS AND METHODS FOR LABELING AND DETECTING BINDING PARTNERS” (UNIVERSITY OF UTAH RESEARCH FOUNDATION, priority 2022, published 2026)
# “Also recorded” adds a separate entry of the source.
# Assays:
# Assay type in all cases: cell-based
# [1] = molecular target: T1, MEK1:trametinib:KSR1 complex (Homo sapiens, UniProt Q02750); experiment: BioTAC detection of molecular glue complex by immunoblot of MEK1 and KSR1; conditions: 4 hr treatment with 1 μM, 100 μM biotin
# T1 construct: Immunoblot analysis of MEK1 and KSR1 following treatment of HEK293 cells; host or cells: HEK293 transiently transfected with the BioTAC plasmid
# T1 sequence (Q02750 whole entry, one chain of several): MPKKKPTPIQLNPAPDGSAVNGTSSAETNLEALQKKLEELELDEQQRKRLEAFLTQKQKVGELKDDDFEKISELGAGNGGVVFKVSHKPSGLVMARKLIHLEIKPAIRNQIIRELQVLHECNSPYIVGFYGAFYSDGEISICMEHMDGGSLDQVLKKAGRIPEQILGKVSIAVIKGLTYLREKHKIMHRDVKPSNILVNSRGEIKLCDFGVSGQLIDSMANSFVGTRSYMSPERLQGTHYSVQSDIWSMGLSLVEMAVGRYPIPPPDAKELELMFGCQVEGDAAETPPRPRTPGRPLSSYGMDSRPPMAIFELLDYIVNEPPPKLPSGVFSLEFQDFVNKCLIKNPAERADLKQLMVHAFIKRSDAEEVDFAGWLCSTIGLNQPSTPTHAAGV
# Description: (§1) Bifunctional trametinib analogue JWJ-01-280/Cpd2 was synthesized, with a linker attachment informed by a reported trametinib-derived BRET probe named Tram-bo (FIG. 3B). […] The ability of the BioTAC system to detect both known interactors of trametinib was evaluated by Western blot, as described above.
# (§2) 0.6 million HEK293 cells were plated into wells containing 1 mL of complete media (DMEM, 10% FBS, 1% pen/strep) and incubated overnight. Cells were transiently transfected with 100 μL of OptiMEM media containing 1 μg of BioTAC plasmid and 3 μL of TransIT-2020 transfection reagent (Mirus, MIR5400) for 24 hr. Following a media change, cells were pre-treated with parental molecules or DMSO for 10 min, then treated with bifunctional compound for 10 min, and finally labeled in 100 μM biotin for the indicated time. Cells were washed twice with DPBS then harvested into 1.5 mL tubes. […] Protein concentration was determined by BCA assay (Thermo, 23225), then 100 ug protein was rotated overnight at 4° C. with 8 μL of streptavidin magnetic beads (Thermo, 88817) that had been prewashed twice in RIPA lysis buffer. […]
# [2] = molecular target: T2, NLuc-FKBP12F36V (Homo sapiens, UniProt P62942, F37V); experiment: FKBP12F36V cellular target engagement assay (competition with dTAG-13, NLuc/FLuc signal); conditions: for competitive displacement of dTAG-13 (FKBP12F36V cellular target engagement): mean±S.D. of n=3 technical replicates, FIG. 4D-F
# T2 construct: expressed in transfected cells
# T2 sequence (P62942 2-108 F37V limits assumed): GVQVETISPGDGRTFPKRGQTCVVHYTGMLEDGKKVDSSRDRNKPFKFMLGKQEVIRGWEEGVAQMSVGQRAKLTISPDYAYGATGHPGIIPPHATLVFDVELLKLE
# Description: This method, named the biotin targeting chimera (BioTAC) system, uses bifunctional molecules composed of a compound-of-interest linked to selective FKBP12F36V recruiter orthoAP1867, to recruit a ligandable proximity labeling enzyme (mTurbo-FKBP12F36V) to compound-bound complexes enabling their biotinylation and subsequent affinity purification (FIG. TA-B). To benchmark the BioTAC system for accurate detection of the direct targets of ligands the well-characterized BET protein inhibitor (+)-JQ1, which potently binds BRD2, BRD3 and BRD4 (as well as the testes-specific BET protein BRDT), was selected as a test case. A series of bifunctional molecules consisting of (+)-JQ1 conjugated to […] were synthesized via a variable linker (FIG. 1B, FIG. 4A-C). (+)-JQ1-bifunctional molecule cell permeability was measured using an FKBP12F36V cellular target engagement assay adapted from Nabet et. al Nat Commun 11, 4687 (2020). Briefly, FKBP12F36V binding molecules compete with an FKBP12F36V targeting PROTAC (dTAG-13), for NLuc-FKBP12F36V occupancy, rescuing degradation and resulting in an increase in NLuc/FLuc (control) signal relative to DMSO-treated cells. All synthesized compounds were comparably cell permeable (FIG. 4D-E).
# [3] = molecular target: T3, MEK1 (Homo sapiens, UniProt Q02750); experiment: BioTAC proximity labeling, streptavidin enrichment and immunoblot for MEK1; conditions: HEK293 with miniTurbo-FKBP12F36V, 100 μM biotin, dose and time point optimization
# T3 construct: Immunoblot analysis of MEK1/2 enrichment following treatment of HEK293 cells; host or cells: HEK293 transiently transfected with the BioTAC plasmid
# T3 sequence (Q02750 whole entry): as the sequence (Q02750 whole entry, one chain of several) above
# T3 sequence (as listed by the source partner): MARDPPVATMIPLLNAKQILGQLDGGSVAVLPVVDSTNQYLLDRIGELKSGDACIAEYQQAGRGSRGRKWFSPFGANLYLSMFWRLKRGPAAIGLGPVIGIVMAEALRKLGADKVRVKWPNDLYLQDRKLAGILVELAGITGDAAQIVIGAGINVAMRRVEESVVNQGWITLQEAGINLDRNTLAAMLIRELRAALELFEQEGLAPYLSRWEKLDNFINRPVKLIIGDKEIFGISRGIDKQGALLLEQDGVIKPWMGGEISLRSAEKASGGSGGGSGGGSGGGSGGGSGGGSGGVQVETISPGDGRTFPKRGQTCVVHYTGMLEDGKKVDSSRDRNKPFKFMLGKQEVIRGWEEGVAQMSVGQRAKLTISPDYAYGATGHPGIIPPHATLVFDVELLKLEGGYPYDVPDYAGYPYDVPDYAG
# Description: as §1, §2
# [4] = molecular target: T4, BRD4 (Homo sapiens, UniProt O60885); experiment: BioTAC proximity labeling, streptavidin pulldown and western blot for BRD4; conditions: variable concentrations of free (+)-JQ1 against 1 μM bifunctional (+)-JQ1 recruiters, all timepoints
# T4 construct: host or cells: HEK293 transiently transfected with the BioTAC plasmid
# Description: Next bifunctional molecule guided-proximity labeling experiments were performed using validated reagents. HEK293 cells transiently transfected with mTurbo-FKBP12F36V were treated with 100 μM biotin, 1 μM bifunctional (+)-JQ1 recruiters, and variable concentrations of free (+)-JQ1 to off-compete the bifunctional molecule and rescue biotinylation. Biotinylated proteins were isolated from cell lysates via streptavidin bead pulldown and analyzed by western blot for BRD4, a primary target of (+)-JQ1.
# as §2
compound,measurement,setting,value
"CC[C@H](C(=O)N1CCCC[C@H]1C(=O)O[C@H](CCc1ccc(OC)c(OC)c1)c1ccccc1OCC(=O)NCCOCCOCCC(=O)Nc1cccc(-n2c(=O)n(C3CC3)c(=O)c3c(Nc4ccc(I)cc4F)n(C)c(=O)c(C)c32)c1)c1cc(OC)c(OC)c(OC)c1 [Cpd2, (R)-1-(2-(2-((2-(2-(3-((3-(3-Cyclopropyl-5-((2-fluoro-4-iodophenyl)amino)-6,8-dimethyl-2,4,7-trioxo-3,4,6,7-tetrahydropyrido[4,3-d]pyrimidin-1(2H)-yl)phenyl)amino)-3-oxopropoxy)ethoxy)ethyl)amino)-2-oxoethoxy)phenyl)-3-(3,4-dimethoxyphenyl)propyl (S)-1-((S)-2-(3,4,5-trimethoxyphenyl)butanoyl)piperidine-2-carboxylate]",detection/enrichment of MEK1:trametinib:KSR1 complex (immunoblot of MEK1 and KSR1),[1],detected; also recorded: successful enrichment and competition with trametinib
same,cell permeability measured by FKBP12F36V cellular target engagement assay,"[2]; rescue of NLuc-FKBP12F36V degradation by dTAG-13, relative to DMSO",less cell permeable than the (+)-JQ1 derivatives
same,MEK1 labelling (immunoblot),[3],efficient MEK1 labelling
"CC[C@H](C(=O)N1CCCC[C@H]1C(=O)O[C@H](CCc1ccc(OC)c(OC)c1)c1ccccc1OCC(=O)NCCOCCOCCNC(=O)C[C@@H]1N=C(c2ccc(Cl)cc2)c2c(sc(C)c2C)-n2c(C)nnc21)c1cc(OC)c(OC)c(OC)c1 [JWJ-01-236, (R)-1-(2-((14-((S)-4-(4-Chlorophenyl)-2,3,9-trimethyl-6H-thieno[3,2-f][1,2,4]triazolo[4,3-a][1,4]diazepin-6-yl)-2,13-dioxo-6,9-dioxa-3,12-diazatetradecyl)oxy)phenyl)-3-(3,4-dimethoxyphenyl)propyl (S)-1-((S)-2-(3,4,5-trimethoxyphenyl)butanoyl)piperidine-2-carboxylate]",competitive displacement of dTAG-13 (FKBP12F36V cellular target engagement),[2],competitive displacement of dTAG-13
"CC[C@H](C(=O)N1CCCC[C@H]1C(=O)O[C@H](CCc1ccc(OC)c(OC)c1)c1ccccc1OCC(=O)NCCCCCCCCNC(=O)C[C@@H]1N=C(c2ccc(Cl)cc2)c2c(sc(C)c2C)-n2c(C)nnc21)c1cc(OC)c(OC)c(OC)c1 [JWJ-01-255, (R)-1-(2-(2-((8-(2-((S)-4-(4-Chlorophenyl)-2,3,9-trimethyl-6H-thieno[3,2-f][1,2,4]triazolo[4,3-a][1,4]diazepin-6-yl)acetamido)octyl)amino)-2-oxoethoxy)phenyl)-3-(3,4-dimethoxyphenyl)propyl (S)-1-((S)-2-(3,4,5-trimethoxyphenyl)butanoyl)piperidine-2-carboxylate]",competitive displacement of dTAG-13 (FKBP12F36V cellular target engagement),[2],competitive displacement of dTAG-13
(+)-JQ1 [reference compound],BRD4 pulldown in presence of free competitor,[4],dose dependent decrease in BRD4 pulldown
